Results from BindingDB's records for doi:10.1021/np500198g (University of Tuebingen, 2014).

Target: T1, Prostaglandin G/H synthase 2 (Homo sapiens, UniProt P35354)
T1 sequence (P35354 whole entry): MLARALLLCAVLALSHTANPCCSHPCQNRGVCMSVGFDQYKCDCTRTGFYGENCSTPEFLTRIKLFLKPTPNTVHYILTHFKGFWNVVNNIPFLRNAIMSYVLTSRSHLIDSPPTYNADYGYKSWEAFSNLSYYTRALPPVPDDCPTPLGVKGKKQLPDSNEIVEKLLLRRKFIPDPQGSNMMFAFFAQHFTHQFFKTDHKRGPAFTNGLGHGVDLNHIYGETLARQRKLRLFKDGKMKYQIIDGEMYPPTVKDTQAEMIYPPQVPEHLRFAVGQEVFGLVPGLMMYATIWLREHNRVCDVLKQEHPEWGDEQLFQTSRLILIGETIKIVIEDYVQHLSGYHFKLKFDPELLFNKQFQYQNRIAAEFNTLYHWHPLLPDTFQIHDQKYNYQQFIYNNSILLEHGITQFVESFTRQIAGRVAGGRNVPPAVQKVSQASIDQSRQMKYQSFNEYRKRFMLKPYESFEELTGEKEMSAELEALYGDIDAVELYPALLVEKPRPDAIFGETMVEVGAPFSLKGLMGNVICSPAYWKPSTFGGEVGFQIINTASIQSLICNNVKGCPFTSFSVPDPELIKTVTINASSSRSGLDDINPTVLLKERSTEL
Assay: Inhibition of human recombinant COX-2 using arachidonic acid as substrate preincubated for 5 mins followed by substrate addition measured after 5 mins by HPLC analysis

## CC(C)=CCC[C@H](C(=O)O)[C@@H]1CC[C@]2(C)C3=C(CC[C@@]12C)[C@@]1(C)CC[C@@H](O)C(C)(C)[C@@H]1CC3
  IC50: > 10 µM
